Assays:
Assay type in all cases: functional
OVCAR-5 [1] = experiment: Growth inhibition of human OVCAR5 cells assessed as cell growth at 10^-7 M incubated for 48 hrs by sulforhodamine B assay relative to control; details: OVCAR-5, 48 h, read-out: Activity
NCI/ADR-RES = experiment: Growth inhibition of human NCI/ADR-RES cells assessed as cell growth at 10^-5 M incubated for 48 hrs by sulforhodamine B assay relative to control; details: read-out: Activity
A549 = experiment: Growth inhibition of human A549/ATCC cells assessed as cell growth at 10^-6 M incubated for 48 hrs by sulforhodamine B assay relative to control; details: A549, 48 h, read-out: Activity
Hs-578T [2] = experiment: Growth inhibition of human Hs 578T cells assessed as cell growth at 10^-6 M incubated for 48 hrs by sulforhodamine B assay relative to control; details: read-out: Activity
HCC 2998 = experiment: Growth inhibition of human HCC2998 cells assessed as cell growth at 10^-6 M incubated for 48 hrs by sulforhodamine B assay relative to control; details: HCC 2998, 48 h, read-out: Activity
PC-3 [3] = experiment: Growth inhibition of human PC3 cells assessed as cell growth at 10^-4 M incubated for 48 hrs by sulforhodamine B assay relative to control; details: PC-3, 48 h, read-out: Activity
SN12C = experiment: Growth inhibition of human SN12C cells assessed as cell growth at 10^-7 M incubated for 48 hrs by sulforhodamine B assay relative to control; details: read-out: Activity
UO-31 = experiment: Growth inhibition of human UO31 cells assessed as cell growth at 10^-4 M incubated for 48 hrs by sulforhodamine B assay relative to control; details: UO-31, 48 h, read-out: Activity
COLO 205 [4] = experiment: Growth inhibition of human COLO205 cells assessed as cell growth at 10^-6 M incubated for 48 hrs by sulforhodamine B assay relative to control; details: COLO 205, 48 h, read-out: Activity
UACC-257 = experiment: Growth inhibition of human UACC257 cells assessed as cell growth at 10^-5 M incubated for 48 hrs by sulforhodamine B assay relative to control; details: UACC-257, 48 h, read-out: Activity
786-0 = experiment: Growth inhibition of human 786-0 cells assessed as cell growth at 10^-8 M incubated for 48 hrs by sulforhodamine B assay relative to control; details: 786-0, 48 h, read-out: Activity
OVCAR-8 = experiment: Growth inhibition of human OVCAR8 cells assessed as cell growth at 10^-5 M incubated for 48 hrs by sulforhodamine B assay relative to control; details: OVCAR-8, 48 h, read-out: Activity
A498 = experiment: Growth inhibition of human A498 cells assessed as cell growth at 10^-4 M incubated for 48 hrs by sulforhodamine B assay relative to control; details: A498, 48 h, read-out: Activity
SF-539 [5] = experiment: Growth inhibition of human SF539 cells assessed as cell growth at 10^-7 M incubated for 48 hrs by sulforhodamine B assay relative to control; details: SF-539, 48 h, read-out: Activity
COLO 205 [6] = experiment: Growth inhibition of human COLO205 cells assessed as cell growth at 10^-4 M incubated for 48 hrs by sulforhodamine B assay relative to control; details: COLO 205, 48 h, read-out: Activity
Malme-3M = experiment: Growth inhibition of human MALME-3M cells assessed as cell growth at 10^-6 M incubated for 48 hrs by sulforhodamine B assay relative to control; details: read-out: Activity
CAKI-1 [7] = experiment: Growth inhibition of human Caki1 cells assessed as cell growth at 10^-7 M incubated for 48 hrs by sulforhodamine B assay relative to control; details: CAKI-1, 48 h, read-out: Activity
Hs-578T [8] = experiment: Growth inhibition of human Hs 578T cells assessed as cell growth at 10^-4 M incubated for 48 hrs by sulforhodamine B assay relative to control; details: read-out: Activity
PC-3 [9] = experiment: Growth inhibition of human PC3 cells assessed as cell growth at 10^-6 M incubated for 48 hrs by sulforhodamine B assay relative to control; details: PC-3, 48 h, read-out: Activity
DU-145 = experiment: Growth inhibition of human DU145 cells assessed as cell growth at 10^-4 M incubated for 48 hrs by sulforhodamine B assay relative to control; details: DU-145, 48 h, read-out: Activity
SK-MEL-28 = experiment: Growth inhibition of human SK-MEL-28 cells assessed as cell growth at 10^-7 M incubated for 48 hrs by sulforhodamine B assay relative to control; details: SK-MEL-28, 48 h, read-out: Activity
OVCAR-5 [10] = experiment: Growth inhibition of human OVCAR5 cells assessed as cell growth at 10^-5 M incubated for 48 hrs by sulforhodamine B assay relative to control; details: OVCAR-5, 48 h, read-out: Activity
HL-60(TB) = experiment: Growth inhibition of human HL-60(TB) cells assessed as cell growth at 10^-5 M incubated for 48 hrs by sulforhodamine B assay relative to control; details: HL-60, 48 h, read-out: Activity
NCI-H322M = experiment: Growth inhibition of human NCI-H322M cells assessed as cell growth at 10^-4 M incubated for 48 hrs by sulforhodamine B assay relative to control; details: read-out: Activity
SF-295 = experiment: Growth inhibition of human SF295 cells assessed as cell growth at 10^-8 M incubated for 48 hrs by sulforhodamine B assay relative to control; details: SF-295, 48 h, read-out: Activity
SF-539 [11] = experiment: Growth inhibition of human SF539 cells assessed as cell growth at 10^-4 M incubated for 48 hrs by sulforhodamine B assay relative to control; details: SF-539, 48 h, read-out: Activity
MCF7 = experiment: Growth inhibition of human MCF7 cells assessed as cell growth at 10^-8 M incubated for 48 hrs by sulforhodamine B assay relative to control; details: MCF7, 48 h, read-out: Activity
CCRF-CEM = experiment: Growth inhibition of human CCRF-CEM cells assessed as cell growth at 10^-5 M incubated for 48 hrs by sulforhodamine B assay relative to control; details: read-out: Activity
MOLT-4 = experiment: Growth inhibition of human MOLT4 cells assessed as cell growth at 10^-8 M incubated for 48 hrs by sulforhodamine B assay relative to control; details: MOLT-4, 48 h, read-out: Activity
MDA-MB-231 = experiment: Growth inhibition of human MDA-MB-231 cells assessed as cell growth at 10^-6 M incubated for 48 hrs by sulforhodamine B assay relative to control; details: MDA-MB-231, 48 h, read-out: Activity
CAKI-1 [12] = experiment: Growth inhibition of human Caki1 cells assessed as cell growth at 10^-8 M incubated for 48 hrs by sulforhodamine B assay relative to control; details: CAKI-1, 48 h, read-out: Activity
KM12 = experiment: Growth inhibition of human KM12 cells assessed as cell growth at 10^-4 M incubated for 48 hrs by sulforhodamine B assay relative to control; details: KM12, 48 h, read-out: Activity
SK-MEL-5 = experiment: Growth inhibition of human SK-MEL-5 cells assessed as cell growth at 10^-8 M incubated for 48 hrs by sulforhodamine B assay relative to control; details: SK-MEL-5, 48 h, read-out: Activity
CAKI-1 [13] = experiment: Growth inhibition of human Caki1 cells assessed as cell growth at 10^-4 M incubated for 48 hrs by sulforhodamine B assay relative to control; details: CAKI-1, 48 h, read-out: Activity

Molecule `CCCCOc1nc2ccccc2cc1C1CNC(=O)c2ccccc2N1` (centres undefined) has a growth at 0.1 µM (OVCAR-5 [1]) of 102%, a growth at 10 µM (NCI/ADR-RES) of -15% and a growth at 1 µM (A549) of 96%. The growth at 1 µM (Hs-578T [2]) was 73%, the growth at 1 µM (HCC 2998) was 93% and the growth at 100 µM (PC-3 [3]) was -63%. For the same molecule, the growth at 0.1 µM (SN12C) was 90%, the growth at 100 µM (UO-31) was -67% and the growth at 1 µM (COLO 205 [4]) was 98%. For the same molecule, the growth at 10 µM (UACC-257) was 48%, the growth at 0.01 µM (786-0) was 99% and the growth at 10 µM (OVCAR-8) was 12%. It also gave a growth at 100 µM (A498) of -38%, a growth at 0.1 µM (SF-539 [5]) of 93% and a growth at 100 µM (COLO 205 [6]) of -62%. The growth at 1 µM (Malme-3M) was 62%, the growth at 0.1 µM (CAKI-1 [7]) was 86% and the growth at 100 µM (Hs-578T [8]) was -25%. The growth at 1 µM (PC-3 [9]) was 89%, the growth at 100 µM (DU-145) was -43% and the growth at 0.1 µM (SK-MEL-28) was 98%. For the same molecule, the growth at 10 µM (OVCAR-5 [10]) was 38%, the growth at 10 µM (HL-60(TB)) was -28% and the growth at 100 µM (NCI-H322M) was -16%. It also gave a growth at 0.01 µM (SF-295) of 84%, a growth at 100 µM (SF-539 [11]) of -70% and a growth at 0.01 µM (MCF7) of 88%. It also gave a growth at 10 µM (CCRF-CEM) of 11%, a growth at 0.01 µM (MOLT-4) of 70% and a growth at 1 µM (MDA-MB-231) of 85%. For the same molecule, the growth at 0.01 µM (CAKI-1 [12]) was 83%, the growth at 100 µM (KM12) was -2% and the growth at 0.01 µM (SK-MEL-5) was 93%. The growth at 100 µM (CAKI-1 [13]) was -22%.

Reference: ChEMBL document CHEMBL4138146, “A Schmidt rearrangement-mediated synthesis of novel tetrahydro-benzo[1,4]diazepin-5-ones as potential anticancer and antiprotozoal agents” (Eur J Med Chem, 2017)
